From the supplement of paper PMC10307832

Tests used:
Assay in all cases: relative viability (nuclei count vs DMSO), 5 days (fraction); higher = more cells survive
[1] = compound: C[As](C)SC[C@H](NC(=O)CC[C@H](N)C(=O)O)C(=O)NCC(=O)O [Darinaparsin] + Nc1nc2[nH]cc(CCc3ccc(C(=O)N[C@@H](CCC(=O)O)C(=O)O)cc3)c2c(=O)[nH]1 [Pemetrexed] (partner 0.2 µM)
How it was run: (§1)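 One day after seeding in 1536-well plates, lung cancer cell lines were dosed by pin tool. Dosing was either single-drug or a fixed anchor-drug dose plus five library-drug doses (not always all listed) in √10 steps. After 5 days, nuclei were stained in one fix-and-stain step and counted on 4× images, and relative viability is the nuclei count of treated wells over that of vehicle wells, given as the median of duplicate plates.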

[2] = compound: CC1=C(C=C(C=C1)NC(=O)C2=CC(=CC=C2)C(C)(C)C#N)NC3=CC4=C(C=C3)N=CN(C4=O)C [AZ628] + CS(=O)(=O)N1CCN(Cc2cc3nc(-c4cccc5[nH]ncc45)nc(N4CCOCC4)c3s2)CC1 [Pictilisib] (partner 1 µM)
How it was run: as §1

[3] = compound: CC1=C(C=C(C=C1)NC(=O)C2=CC(=CC=C2)C(C)(C)C#N)NC3=CC4=C(C=C3)N=CN(C4=O)C [AZ628] + C[C@]1(O)C[C@@H](c2nc(-c3ccc4ccc(-c5ccccc5)nc4c3)c3c(N)nccn32)C1 [Linsitinib] (partner 1 µM)
How it was run: as §1

[4] = compound: C[As](C)SC[C@H](NC(=O)CC[C@H](N)C(=O)O)C(=O)NCC(=O)O [Darinaparsin] + CC(=O)c1c(C)c2cnc(Nc3ccc(N4CCNCC4)cn3)nc2n(C2CCCC2)c1=O [Palbociclib] (partner 0.5 µM)
How it was run: as §1

Cell Line | relative viability ([1]; first compound 0.08 µM) | relative viability ([1]; first compound 0.8 µM) | relative viability ([1]; first compound 2.53 µM) | relative viability ([1]; first compound 8 µM) | relative viability ([2]; first compound 0.08 µM) | relative viability ([2]; first compound 0.253 µM) | relative viability ([2]; first compound 0.8 µM) | relative viability ([2]; first compound 2.53 µM) | relative viability ([2]; first compound 8 µM) | relative viability ([3]; first compound 0.08 µM) | relative viability ([3]; first compound 0.253 µM) | relative viability ([3]; first compound 0.8 µM) | relative viability ([3]; first compound 2.53 µM) | relative viability ([3]; first compound 8 µM) | relative viability ([4]; first compound 0.08 µM) | relative viability ([4]; first compound 0.8 µM) | relative viability ([4]; first compound 2.53 µM) | relative viability ([4]; first compound 8 µM)
NCI-H650 | 0.947 | 0.835 | 0.959 | 1.02 | 1.07 | 1 | 1.06 | 1.12 | 0.732 | 1.09 | 0.911 | 1.25 | 0.952 | 0.78 | 0.325 | 0.331 | 0.339 | 0.322
SW 1573 | 1 | 0.84 | 0.815 | 0.939 | 0.44 | 0.34 | 0.367 | 0.335 | 0.27 | 0.599 | 0.725 | 0.661 | 0.632 | 0.412 | 0.412 | 0.353 | 0.355 | 0.488
NCI-H322M | 0.695 | 0.582 | 0.589 | 0.618 | 0.554 | 0.473 | 0.482 | 0.469 | 0.412 | 1.05 | 0.939 | 1.01 | 0.854 | 0.662 | 0.478 | 0.456 | 0.487 | 0.442
ABC-1 |  |  |  |  | 0.764 | 0.828 | 0.677 | 0.643 | 0.486 | 0.857 | 0.81 | 0.854 | 0.719 | 0.799 | 0.879 | 0.6 | 0.744 | 0.729
NCI-H1993 | 0.617 | 0.66 | 0.599 | 0.64 | 0.784 | 0.829 | 0.705 | 0.769 | 0.726 | 0.761 | 0.59 | 0.716 | 0.824 | 0.711 | 0.586 | 0.743 | 0.59 | 0.68
NCI-H1355 | 1.16 | 1.08 | 0.906 | 1.07 | 0.454 | 0.395 | 0.404 | 0.34 | 0.285 | 0.846 | 0.93 | 0.765 | 0.806 | 0.655 | 0.445 | 0.398 | 0.322 | 0.387
PC-3 [JPC-3] | 1.43 | 1.02 | 1.04 | 1.04 | 0.767 | 0.835 | 0.861 | 0.814 | 0.525 | 0.893 | 0.971 | 1.01 | 1.04 | 0.952 | 0.553 | 0.516 | 0.542 | 0.547
NCI-H1651 | 0.621 | 0.594 | 0.569 | 0.748 | 0.698 | 0.685 | 0.587 | 0.537 | 0.599 | 1.16 | 1.08 | 1.12 | 1.05 | 0.989 | 0.515 | 0.531 | 0.527 | 0.522
LK-2 | 0.24 |  | 0.286 | 0.329 | 0.577 | 0.824 | 0.443 | 0.481 | 0.311 | 0.694 | 0.458 | 0.437 | 0.527 | 0.235 | 1 |  | 0.815 | 0.989
NCI-H2023 | 0.335 | 0.231 | 0.202 | 0.227 | 0.218 | 0.23 | 0.236 | 0.196 | 0.202 | 0.723 | 0.677 | 0.72 | 0.758 | 0.358 | 0.393 | 0.333 | 0.344 | 0.431
NCI-H2342 | 0.785 | 0.782 | 0.743 | 0.841 |  |  |  |  |  |  |  |  |  |  | 0.539 | 0.527 | 0.493 | 0.538
NCI-H1703 |  |  |  |  | 0.231 | 0.235 | 0.235 | 0.197 | 0.251 | 0.404 | 0.328 | 0.219 | 0.209 | 0.201 |  |  |  | 
NCI-H1563 | 0.761 | 0.765 | 0.669 | 0.866 | 0.613 | 0.667 | 0.657 | 0.658 | 0.616 | 1.3 | 1.18 | 1.23 | 1.29 | 1.29 |  |  |  | 
NCI-H1299 |  |  |  |  | 0.643 | 0.464 | 0.306 | 0.283 | 0.167 | 0.987 | 1.04 | 0.993 | 0.91 | 0.579 |  |  |  | 
NCI-H2170 | 0.32 | 0.267 | 0.389 | 0.287 | 0.386 | 0.305 | 0.354 | 0.337 | 0.275 |  |  |  |  |  | 0.427 | 0.425 | 0.385 | 0.411
NCI-H522 | 0.916 | 1.04 | 1.01 | 1.14 |  |  |  |  |  |  |  |  |  |  | 1.11 | 1.01 | 0.957 | 1.03
NCI-H1648 |  | 0.716 |  | 0.683 |  |  |  |  |  |  |  |  |  |  |  | 0.242 |  | 0.243
A549 |  |  |  |  | 0.473 | 0.378 | 0.311 | 0.406 | 0.138 | 0.571 | 0.542 | 0.469 | 0.606 | 0.39 |  |  |  | 
NCI-H596 | 0.513 | 0.533 | 0.479 | 0.508 | 0.36 | 0.383 | 0.382 | 0.376 | 0.42 | 1.03 | 1.12 | 0.982 | 1.1 | 1.22 |  |  |  | 
EBC-1 |  |  |  |  | 0.341 | 0.299 | 0.271 | 0.233 | 0.201 | 0.87 | 0.843 | 0.999 | 0.773 | 0.885 |  |  |  | 
IA-LM |  |  |  |  | 0.352 | 0.231 | 0.155 | 0.145 | 0.115 | 0.761 | 0.711 | 0.509 | 0.353 | 0.252 |  |  |  | 
ChaGo-K-1 | 0.251 | 0.266 | 0.271 | 0.263 | 0.889 |  | 0.474 | 0.756 | 0.743 |  |  |  |  |  | 0.95 | 0.958 | 0.856 | 1.06
NCI-H1650 | 0.426 | 0.369 | 0.342 | 0.396 | 0.741 | 0.604 | 0.614 | 0.5 | 0.342 |  |  |  |  |  | 0.377 | 0.321 | 0.325 | 0.375
